Literature values as cited in patent publication US20190320896A1, “STROKE, CONCUSSION, AND COGNITIVE DYSFUNCTION DIAGNOSTIC METHOD AND DEVICE” (priority 2018, published 2019).

Columns and labels:
[1] = human, in vivo
[2] = upon entering the circulation after bolus injection into a peripheral vein
[3] = after administration; metabolized by the kidneys

| Compound | GLOS also affecting the aqueous chamber, cases [1] | GLOS in both chambers, patients [1] | GLOS in the aqueous chamber alone, patients [1] | GLOS in the vitreous chamber alone, patients [1] | GLOS present, always involving the vitreous chamber, patients [1] [% patients] | dye molecules bound to plasma proteins [2] | time to elimination through the urine [3] [h] |
| --- | --- | --- | --- | --- | --- | --- | --- |
| O=C([O-])CN(CCN(CC(=O)[O-])CC(=O)[O-])CCN(CC(=O)[O-])CC(=O)[O-].[Gd+3] [gadolinium, Gadolinium-DTPA] | 6 % of cases | 27 % of patients | 67 % of patients | 6 % of patients | 75 | – | – |
| O=C1OC2(c3ccc(O)cc3Oc3cc(O)ccc32)c2ccccc21 [sodium fluorescein] | – | – | – | – | – | approximately 80% | 24 to 36 |
